Results on nine molecules are retold here after BindingDB's records for doi:10.1016/j.bmcl.2015.11.049 (Genomics Institute of The Novartis Research Foundation, 2016).

pIC50: −log10 of the molar value.

Broadly, the pIC50 is −log10 of the IC50, conventionally taken in molar units.

Experiment [1] in a line: Inhibition of […] (unknown origin) expressed in mouse BaF3 cells assessed as reduction in cell proliferation incubated for 2 to 3 days by Bright-Glo luciferase assay.
Experiment [2] in a line: Inhibition of […] (unknown origin) expressed in human KARPAS-299 cells assessed as reduction in cell growth.
Experiment [3] is described as follows: Inhibition of Tel fused InsR (unknown origin) expressed in mouse BaF3 cells assessed as reduction in cell proliferation incubated for 2 to 3 days by Bright-Glo luciferase assay.
Experiment [4] in a line: Inhibition of PDK1 (unknown origin).

For `Cc1cc(Nc2nc(Nc3ccccc3S(=O)(=O)C(C)C)c3c(N)n[nH]c3n2)c(OC(C)C)cc1C1CCN(C)CC1`, the pIC50 in experiment [1] was 6.82.
Consider `Cc1cc(Nc2nc(Nc3ccccc3S(=O)(=O)C(C)C)c3cccnc3n2)c(OC(C)C)cc1C1CCNCC1`, for which, in experiment [1], the pIC50 is 5.50.
Same read-out and setting: for `Cc1cc(Nc2nc(Nc3ccccc3S(=O)(=O)C(C)C)c3cn[nH]c3n2)c(OC(C)C)cc1C1CCN(C)CC1` the value was 7.89; for `Cc1cc2c(Nc3ccccc3S(=O)(=O)C(C)C)nc(Nc3cc(C)c(C4CCN(C)CC4)cc3OC(C)C)nc2[nH]1`, 5.89; for `Cc1cc(Nc2nc(Nc3ccccc3S(=O)(=O)C(C)C)c3cc[nH]c3n2)c(OC(C)C)cc1C1CCNCC1`, 7.33.
In the case of `Cc1cc(Nc2cc(Nc3ccccc3S(=O)(=O)C(C)C)c3cc[nH]c3n2)c(OC(C)C)cc1C1CCN(C)CC1`, the values for the pIC50 in experiment [2] and in experiment [1] were 5.14 and 5.85, respectively.
`Cc1cc(Nc2nc(Nc3ccccc3S(=O)(=O)C(C)C)c3cn[nH]c3n2)c(OC(C)C)cc1C1CCNCC1`: the pIC50 in experiment [1] was 7.48.
As for `Cc1cc(Nc2nc(Nc3ccccc3S(=O)(=O)C(C)C)c3c(C)[nH]nc3n2)c(OC(C)C)cc1C1CCN(C)CC1` [US8592432, 34], the negative-log IC50 (pIC50) in experiment [2] was 7.59; in experiment [3] it was 6.37; in experiment [1], 7.70; in experiment [4] it was below 5.00.
For the molecule `Cc1cc(Nc2nc(Nc3ccccc3S(=O)(=O)C(C)C)c3ccccc3n2)c(OC(C)C)cc1C1CCN(C)CC1`, the pIC50 in experiment [1] was 5.97.
